Results taken from patent publication US9217157B2, “Recombinant influenza viruses and uses thereof” (Icahn School of Medicine at Mount Sinai, priority 2009, dated 2015).

Legend:
NS1-GFP virus [1] = type: in vivo, influenza A virus
NS1-GFP virus [2] = tested on: NS1-GFP virus; set-up: species or system influenza A virus; details: in vivo

**Q.** How did the “GFP fluorescence intensity of lungs lower than in untreated mice” value (NS1-GFP virus [1]; day 2 post-infection, 10^6 pfu, 50 mg/Kg once daily from day of infection) turn out when `CCOC(=O)C1=C[C@@H](OC(CC)CC)[C@H](NC(C)=O)[C@@H](N)C1` [oseltamivir] was run?
**A.** 3 to 5 fold

**Q.** And the “spread of GFP signal in lungs, in words” value (NS1-GFP virus [1]; day 4 post infection, treatment from day of infection)?
**A.** significantly restricted the spread of viral infection

**Q.** And the “GFP fluorescence signal in lungs vs no treatment, in words” value (NS1-GFP virus [1]; day 4 post infection, treatment started two days after infection (day+2))?
**A.** no significant difference

**Q.** And the “effect on NS1-GFP infection in different cell types, in words” value (NS1-GFP virus [2])?
**A.** dramatically reduced infection rate in all of the examined cell types

**Q.** And the “number of infiltrating cells (inflammatory monocytes and neutrophils), in words” value (NS1-GFP virus [2])?
**A.** dramatically lower than in amantadine treated mice

**Q.** Which results are given for `NC12CC3CC(CC(C3)C1)C2` [amantadine]?
**A.** effect on NS1-GFP infection in different cell types, in words (NS1-GFP virus [2]): most effective in blocking infection of NK and B cells, but was less potent for other cell types; prevention of infection in B and NK cells (NS1-GFP virus [2]): 3-4 fold; reduction in infection of CD11b+ CD11c+ cells (NS1-GFP virus [2]): 50%; reduction in infection of epithelial (CD45-) cells (NS1-GFP virus [2]): 50%
